Test [1] relates to RKO colon adenocarcinoma cells (RKOp27) arrested by expression of ectopic p27Kip1. The test is described as follows: Alamar Blue cell viability assay, cell cycle specific mode of action, RKO p27 induced (arrested by Ponasterone A-induced p27Kip1). In kind it is cell-based. Particulars: Homo sapiens, RKOp27, 72 h, cells arrested by p27Kip1 induced with 10 μM Ponasterone A, 72 hours incubation. On the procedure:
To determine the cell cycle specific mode of action, subdlones of RKO colon adenocarcinoma cells (RKOp27 or RKOp21 as described by Schmidt et al. in Oncogene 19, 2423-2429; 2000) are seeded into 96 well flat bottom plates at a density of 16000 cells per well in a volume of 50 μl per well in DMEM growth medium with 10% FCS containing 10 μM Ponasterone A. 24 hours after seeding the 50 μl each of the compound dilutions in DMEM medium are added into each well of the 96 Well plate. Each compound dilution is tested as quadruplicates. Wells containing untreated control cells are filled with 50 μl DMEM medium containing 1% DMSO. The cells are then incubated with the substances for 72 hours at 37° C. in a humidified atmosphere containing 5% carbon dioxide. To determine the viability of the cells, 10 μl of an Alamar Blue solution (Biosource) are added and the fluorescence was measured at an extinction of 544 nm and an emission of 590 nm. For the calculation of the cell viability the emission value from untreated cells is set as 100% viability and the emission rates of treated cells are set in relation to the values of untreated cells. Viabilities are expressed as % values. Viability is compared of proliferating cells grown in the absence of the inducer Ponasterone A, versus viability of cells arrested by the expression of ectopic p27Kip1 induced by Ponasterone A. The data of this experimental setting are summarized in table A (2nd column).

The subject of test [2] is RKO (RKOp27) human colon adenocarcinoma cells. Put plainly: Alamar Blue cell viability assay, anti-proliferative/cytotoxic activity, RKO p27 uninduced. In kind it is cell-based. The note with it: RKOp27, 72 h, proliferating cells, absence of the inducer Ponasterone A, 72 hours incubation. As to the method: The anti-proliferative/cytotoxic activity of the compounds described herein, can be tested on subdlones of RKO (RKOp27) human colon adenocarcinoma cells (Schmidt et al., Oncogene 19, 2423-2429; 2000) using the Alamar Blue cell viability assay (described in O'Brien et al. Eur J Biochem 267, 5421-5426, 2000). The compounds are dissolved as 20 mM solutions in dimethylsulfoxide (DMSO) and subsequently diluted in semi-logarithmic steps. DMSO dilutions are further diluted 1:100 into Dulbecco's modified Eagle's medium (DMEM) containing 10% fetal calf serum to a final concentration twice as much as the final concentration in the test. RKO subclones are seeded into 96 well flat bottom plates at a density of 4000 cells per well in a volume of 50 µl per well. 24 hours after seeding the 50 μl each of the compound dilutions in DMEM medium are added into each well of the 96 Well plate. Each compound dilution is tested as quadruplicates. Wells containing untreated control cells are filled with 50 μl DMEM medium containing 1% DMSO. The cells are then incubated with the substances for 72 hours at 37° C. in a humidified atmosphere containing 5% carbon dioxide. To determine the viability of the cells, 10 μl of an Alamar Blue solution (Biosource) are added and the fluorescence is measured at an extinction of 544 nm and an emission of 590 nm. For the calculation of the cell viability the emission value from untreated cells is set as 100% viability and the emission rates of treated cells are set in relation to the values of untreated cells. Viabilities are expressed as % values.
The corresponding IC50 values of the compounds for anti-proliferative/cytotoxic activity are determined from the concentration-effect curves.
Representative IC50 values for anti-proliferation/cytotoxicity determined for the compounds mentioned and numbered as Examples in the examples above follow from the following table A (1st column), in which the numbers of the compound correspond to the numbers of the examples. Any or all of the compounds according to the present invention which are listed in the Table A, as well as their salts, are to be mentioned as a particular interesting subject of the present invention.
Background: The colour change of resazurin is a common sign of viable cells or microbes.

The results in this text go back to US7714134B2, “Compounds and use of tetrahydropyridothiophenes” (4SC AG, priority 2004, dated 2010).

Regarding `CC(C)(C)OC(=O)N1CCc2c(sc(NC(=O)c3ccccc3)c2C#N)C1` [Compound 1, N-(6-tert.-Butyloxycarbonyl-3-cyano-4,5,6,7-tetrahydro-thieno[2,3-c]pyridin-2-yl)-benzamide], the IC50 in test [1] is over 100 µM; in test [2], at most 2 µM.
`COc1cccc(C(=O)Nc2sc3c(c2C#N)CCN(C(=O)OC(C)(C)C)C3)c1` [Compound 3, N-(6-tert.-Butyloxycarbonyl-3-cyano-4,5,6,7-tetrahvdro-thieno[2,3-c]pyridin-2-yl)-3-methoxybenzamide]: the IC50 in test [1] was over 100 µM; in test [2] it was at most 2 µM.
With `CCCC(=O)N1CCc2c(sc(NC(=O)c3ccccc3)c2C#N)C1` [Compound 5], the IC50 is 80 µM in test [1] and at most 2 µM in test [2].
`CCCCCCC(=O)N1CCc2c(sc(NC(=O)c3ccccc3)c2C#N)C1` [Compound 6]: the IC50 in test [1] was over 100 µM; in test [2] it was at most 2 µM.
For `COCCC(=O)N1CCc2c(sc(NC(=O)c3ccccc3)c2C#N)C1` [Compound 7, N-(3-Cyano-7-methoxyethylcarbonyl-4,5,6,7-tetrahydro-thien[2,3-c]pyridin-2-yl)-benzamide], the IC50 in test [1] is over 100 µM; in test [2], at most 2 µM.
On the same counts, the results for `N#Cc1c(NC(=O)c2ccccc2)sc2c1CCN(C(=O)CCC(N)=O)C2` [Compound 8] are over 100 µM and at most 2 µM.
Consider `CCOC(=O)N1CCc2c(sc(NC(=O)c3cccc(OC)c3)c2C#N)C1` [Compound 12, N-(6-Ethoxycarbonyl-3-cyano-4,5,6,7-tetrahydro-thieno[2,3-c]pyridin-2-yl)-3-methoxybenzamide], for which the IC50 in test [1] is over 100 µM; in test [2], at most 2 µM.
As for `CCCCCOC(=O)N1CCc2c(sc(NC(=O)c3ccccc3)c2C#N)C1` [Compound 14], the results for the IC50 in test [1] and in test [2] were over 100 µM and at most 2 µM, respectively.
On the same counts, the results for `Cc1ncsc1CCOC(=O)N1CCc2c(sc(NC(=O)c3ccccc3)c2C#N)C1` [Compound 17] are over 100 µM and at most 2 µM.
For `CCOC(=O)N1CCc2c(sc(NC(=O)c3ccccc3)c2C#N)C1` [Compound 18, N-(6-Ethoxycarbonyl-3-cyano-4,5,6,7-tetrahydro-thieno[2,3-c]pyridin-2-yl)-benzamide], the IC50 is over 100 µM in test [1] and at most 2 µM in test [2].
On the same counts, the results for `CCOC(=O)N1CCc2c(sc(NC(=O)c3cc(OC)cc(OC)c3)c2C#N)C1` [Compound 19, N-(6-Ethoxycarbonyl-3-cyano-4,5,6,7-tetrahydro-thieno[2,3-c]pyridin-2-yl)-3,5-dimethoxybenzamide] are over 100 µM and at most 2 µM.
On the same counts, the results for `CC(=O)N1CCc2c(sc(NC(=O)c3ccccc3)c2C#N)C1` [Compound 20, N-(6-Acetyl-3-cyano-4,5,6,7-tetrahydro-thieno[2,3-c]pyridin-2-yl)-benzamide] are over 100 µM and 3 µM.
In the case of `COC(=O)CCC(=O)N1CCc2c(sc(NC(=O)c3ccccc3)c2C#N)C1` [Compound 22, 4-{3-Cyano-2-[(1-phenyl-methanoyl)-amino]-4,7-dihydro-5H-thieno[2,3-c]pyridin-6-yl}-4-oxo-butyric acid methyl ester], the figures for the IC50 in test [1] and in test [2] were over 100 µM and at most 2 µM, respectively.
In the same order, the values of `COc1cccc(C(=O)Nc2sc3c(c2C#N)CCN(C(C)=O)C3)c1` [Compound 24, N-(6-Acetyl-3-cyano-4,5,6,7-tetrahydro-thieno[2,3-c]pyridin-2-yl)-3-methoxy-benzamide] are over 100 µM and at most 2 µM.
`CCCC(=O)N1CCc2c(sc(NC(=O)c3cccc(OC)c3)c2C#N)C1` [Compound 25, N-(6-Butyryl-3-cyano-4,5,6,7-tetrahydro-thieno[2,3-c]pyridin-2-yl)-3-methoxy-benzamide]: the IC50 in test [1] was over 100 µM; in test [2] it was at most 2 µM.
In the same order, the values of `COc1cc(OC)cc(C(=O)Nc2sc3c(c2C#N)CCN(C(C)=O)C3)c1` [Compound 26, N-(6-Acetyl-3-cyano-4,5,6,7-tetrahydro-thieno[2,3-c]pyridin-2-yl)-3,5-dimethoxy-benzamide] are over 100 µM and at most 2 µM.
In the same order, the values of `CC(=O)CCC(=O)N1CCc2c(sc(NC(=O)c3ccccc3)c2C#N)C1` [Compound 27, N-[3-Cyano-6-(4-oxo-pentanoyl)-4,5,6,7-tetrahydro-thieno[2,3-c]pyridin-2-yl]-benzamide] are over 100 µM and at most 2 µM.
Consider `N#Cc1c(NC(=O)c2ccccc2)sc2c1CCN(C(=O)CCCc1cccs1)C2` [Compound 28, N-[3-Cyano6-(4-thiophen-2-yl-butanoyl)-4,5,6,7-tetrahydro-thieno[2,3-c]pryridin-2-yl]-benzamide], for which the IC50 in test [1] was over 100 µM; in test [2], at most 2 µM.
`CCSC(=O)N1CCc2c(sc(NC(=O)c3ccccc3)c2C#N)C1` [Compound 29, N-(3-Cyano-7-(ethylthiocarbonyl)-4,5,6,7-tetrahvdro-thieno[2,3-c]pyridin-2-yl)-benzamide]: the results for the IC50 in test [1] and in test [2] were over 100 µM and at most 2 µM, respectively.
`N#Cc1c(NC(=O)c2ccccc2)sc2c1CCN(C(=O)CCc1c[nH]c3ccccc13)C2` [Compound 30, N-[3-Cyano-6-(3-1H-indol-3-yl-propanoyl)-4,5,6,7-tetrahydro-thieno[2,3-c]pyridin-2-yl]-benzamide]: the IC50 is over 60 µM in test [1] and at most 3 µM in test [2].
`CCOC(=O)CC(=O)N1CCc2c(sc(NC(=O)c3ccccc3)c2C#N)C1` [Compound 31, 3-{3-Cyano-2-[(1-phenyl-methanoyl)-amino]-4,7-dihydro-5H-thieno[2,3-c]pyridin-6-yl}-3-oxo-propionic acid ethyl ester]: the half-inhibitory concentration (IC50) in test [1] is over 60 µM; in test [2] it was at most 3 µM.
In the case of `COCC(=O)N1CCc2c(sc(NC(=O)c3ccccc3)c2C#N)C1` [Compound 32, N-[3-Cyano-6-(2-methoxy-ethanoyl)-4,6,7-tetrahydro-thieno[2,3-c]pyridin-2-yl]-benzamide], the IC50 in test [1] is over 60 µM; in test [2], at most 3 µM.
As for `N#Cc1c(NC(=O)c2ccccc2)sc2c1CCN(C(=O)CCc1nccs1)C2` [Compound 33, N-[3-Cyano-6-(3thiazol-2-yl-propanoyl)-4,5,6,7-tetrahydro-thieno[2,3-c]pyridin-2-yl]-benzamide], the IC50 in test [1] is over 60 µM; in test [2] it was at most 3 µM.
For the molecule `N#Cc1c(NC(=O)c2ccccc2)sc2c1CCN(C(=O)CCn1cnnc1)C2` [Compound 34, N-[3-Cyano-6-(3-[1,2,4]triazol-4-yl-propanoyl)-4,5,6,7-tetrahvdro-thieno[2,3-c]pyridin-2-yl]-benzamide], the IC50 in test [1] is over 60 µM; in test [2], at most 3 µM.
Turning to `N#Cc1c(NC(=O)c2ccccc2)sc2c1CCN(C(=O)Cc1cccnc1)C2` [Compound 35, N-[3-Cyano-6-(2-pyridin-3-yl-ethanoyl)-4,5,6,7-tetrahydro-thieon[2,3-c]pyridin-2-yl]-benzamide], the IC50 in test [1] is over 60 µM; in test [2], at most 3 µM.
With `N#Cc1c(NC(=O)c2ccccc2)sc2c1CCN(C(=O)Cc1c[nH]c3ccccc13)C2` [Compound 36, N-[3-Cyano-6-(2-1H-indol-3-yl-ethanoyl)-4,5,6,7-tetrahydro-thieno[2,3-c]pyridin-2-yl]-benzamide], the IC50 in test [1] is over 60 µM; in test [2], at most 3 µM.
For `N#Cc1c(NC(=O)c2ccccc2)sc2c1CCN(C(=O)CCCc1c[nH]c3ccccc13)C2` [Compound 37, N-[3-Cyano-6-(4-1H-indol-3-yl-butanoyl)-4,5,6,7-tetrahydro-thieno[2,3-c]pyridin-2-yl]-benzamide], the figures for the IC50 in test [1] and in test [2] were over 60 µM and at most 3 µM, respectively.

The IC50 is the point on the concentration scale where inhibition reaches its midpoint.
